Assay results: patent US20120245029A1, “NOVEL PHOSPH(ON)ATE- AND SULF(ON)ATE-BASED PHOSPHATE MODIFIED NUCLEOSIDES USEFUL AS SUBSTRATES FOR POLYMERASES AND AS ANTIVIRAL AGENTS” (priority 2009, published 2012)

Tests used:
Format in all cases: biochemical
HIV-1 RT [1] = biological target: T1, HIV-1 RT (Human immunodeficiency virus type 1 group M subtype B, UniProt P04585); test: Gel-based single nucleotide incorporation assay by HIV-1 RT (primer-template P1T1); settings: for % of P + 1 / % of P + 2: P1T1 125 nM
T1 construct: HIV-1 Reverse Transcriptase serves, in the HIV-1 viral replication process, as catalyst; purchased Ambion
Description: (§1) DNA polymerase reactions: end-labeled primer was annealed to its template by combining primer and template in a molar ratio of 1:2 and heating the mixture to 70° C. for 10 minutes followed by slow cooling to room temperature over a period of 1.5 hour. For the incorporation of a modified nucleoside, a series of 20 μL-batch reactions was performed with the enzyme HIV-1 RT (Ambion, 10 U/μL stock soln, specific activity 8.095 Wring, concentration 1.2 mg/mL). The final mixture contained 125 nM primer template complex, RT buffer (250 mM Tris.HCl, 250 mM KCl, 50 mM MgCl2, 2.5 mM spermidine, 50 mM dithiothreitol (DTT); pH 8.3), 0.025 U/μL HIV-1 RT, and different concentrations of the phosphoramidate to be tested (1 mM, 500 μM, 200 μM and 100 μM).
(§2) Electrophoresis: all polymerase reaction aliquots (2.5 μL) were quenched by the addition of 10 μL of loading buffer (90% formamide, 0.05% bromophenol blue, 0.05% xylene cyanol and 50 mM ethylenediaminetetraacetic acid (EDTA)). Samples were heated at 85° C. for 5 minutes prior to analysis by electrophoresis for 2.5 hours at 2000 V on a 30 cm×40 cm×0.4 mm 20% (19:1 mono:bis) denaturing gel in the presence of a 100 mM Tris-borate, 2.5 mM EDTA buffer; pH 8.3. Products were visualized by phosphorimaging. The amount of radioactivity in the bands corresponding to the products of enzymatic reactions was determined by using the imaging device Cyclone@ and the Optiquant image analysis software (Perkin Elmer).
Here, the ability of phosphoramidate analogues as substrate for HIV-1 RT was investigated by the gel-based single nucleotide incorporation assay. The natural nucleoside triphosphate (dATP) was used as reference.
The ability of HIV-1 reverse transcriptase to incorporate phosphoramidate analogues 2-6 was analysed by gel-based single-nucleotide-incorporation assays using the primer-template complex P1T1.

HIV-1 RT [2] = biological target: T1, HIV-1 RT; test: Elongation of primer P1 directed by template T2 by HIV-1 RT; settings: P1T2; for P+7 product: 60 min
Description: as §1, §2
In order to further investigate the potentiality of the leaving groups of this invention, L-Cys-dAMP (2) and 3-phosphono-L-Ala-dAMP (3) were tested in the template dependent incorporation of more than one phosphoramidate nucleotides by HIV-1 RT (FIG. 4). For this purpose, Primer P1 and template T2 containing an overhang of seven thymidine residues and four nucleobases (GGAC) at the 3′-end were used.
In order to investigate the strand elongation capacity of compound 2, a template dependent incorporation of more than one nucleotide experiment was carried out. In this experiment HIV-1 RT and P1T2 duplex, where seven thymidine bases overhang of the template is flanked by four non-thymidine units at the 3′-end were used. A range of concentration of the building block was incubated with the primer-template complex and 0.025 U/μL of enzyme at the appropriate temperature, samples were quenched after 15, 30, 60, 90 and 120 minutes respectively and analyzed by 20% polyacrylamide gel electrophoresis.

HIV-1 RT [3] = biological target: T1, HIV-1 RT; test: Steady-state kinetics of single nucleotide incorporation by HIV-1 RT
Description: The efficiency of incorporation by HIV-1 RT of 3-phosphono-L-Ala-dAMP (3) was investigated by determination of the kinetic parameters Km and Vmax. The steady-state kinetics assay was carried out as follows. The reaction was started by adding HIV-1 RT to P1-T1 complex, buffer, 3-phosphono-L-Ala-dAMP (3) and dATP. The final mixture (20 μL) contained 0.025 U/μL HIV-1 RT, buffer, 125 nM primer-template complex, and various concentrations 3-phosphono-L-Ala-dAMP and dATP. The range of concentrations for phosphoamidates was optimized according to a Km value for the incorporation of an individual nucleotide. In the case of HIV-1 RT, reaction mixtures containing the enzyme in concentration (0.025 U/μL) to attain 5-25% conversion and appropriate substrate concentration (0.5-100 μM used for 3-phosphono-L-Ala-dAMP (3) and 0.1-10 μM used for dATP) were incubated at 37° C. and run for 8-10 different time intervals (2-20 minutes). The incorporation velocities were calculated based on the percentage of single-nucleotide extension product (P+1 band). The kinetic parameters (Vmax and Km) were determined by plotting V (nM/min) versus substrate concentration (μM) and fitting the data point to a nonlinear Michaelis-Menten regression using GraphPad Prism software.

Taq DNA polymerase = Taq DNA polymerase (Thermus aquaticus, UniProt P19821); test: Single nucleotide incorporation using Taq DNA polymerase; settings: P1T1
Description: 3-phosphono-L-Ala-dAMP (3) was tested as a substrate for Taq DNA polymerase (data in FIG. 5).

HIV-1 RT [4] = biological target: T1, HIV-1 RT; test: Gel-based single nucleotide incorporation assay by HIV-1 RT (primer-template P1T1)
[5] = P1T1 125 nM, HIV-1 RT 0.025 U/μL, 37° C.

Chain of Taq DNA polymerase (P19821 whole entry): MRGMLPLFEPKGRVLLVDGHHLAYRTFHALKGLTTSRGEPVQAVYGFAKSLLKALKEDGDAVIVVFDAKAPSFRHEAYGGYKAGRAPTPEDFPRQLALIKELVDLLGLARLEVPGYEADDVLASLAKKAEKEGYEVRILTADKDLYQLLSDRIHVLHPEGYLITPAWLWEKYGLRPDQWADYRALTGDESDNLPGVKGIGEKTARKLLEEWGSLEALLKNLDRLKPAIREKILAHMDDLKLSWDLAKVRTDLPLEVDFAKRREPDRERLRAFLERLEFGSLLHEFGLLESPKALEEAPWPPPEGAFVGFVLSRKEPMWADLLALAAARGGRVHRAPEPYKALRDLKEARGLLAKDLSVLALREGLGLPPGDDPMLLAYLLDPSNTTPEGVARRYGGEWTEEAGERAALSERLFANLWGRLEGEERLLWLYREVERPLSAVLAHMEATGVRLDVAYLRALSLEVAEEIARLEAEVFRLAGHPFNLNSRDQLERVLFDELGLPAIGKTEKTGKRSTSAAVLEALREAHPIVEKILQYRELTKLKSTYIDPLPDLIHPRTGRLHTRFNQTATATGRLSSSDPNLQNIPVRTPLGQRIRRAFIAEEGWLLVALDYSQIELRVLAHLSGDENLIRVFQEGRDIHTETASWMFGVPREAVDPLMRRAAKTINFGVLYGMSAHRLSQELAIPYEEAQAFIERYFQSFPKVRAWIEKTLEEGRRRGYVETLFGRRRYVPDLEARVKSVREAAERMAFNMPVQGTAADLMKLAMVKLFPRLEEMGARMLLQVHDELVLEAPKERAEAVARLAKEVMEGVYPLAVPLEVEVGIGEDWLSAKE

Compound: Nc1ncnc2c1ncn2[C@H]1C[C@H](O)[C@@H](COP(=O)(O)N[C@@H](CP(=O)(O)O)C(=O)O)O1 [Compound 3, 2′-deoxyadenosine-5′-(3-phosphono-L-alanine) phosphoramidate]
- % of P + 1 (HIV-1 RT [1]; 50 μM substrate, 20 min): 89.9%
- % of P + 1 (HIV-1 RT [1]; 50 μM substrate, 30 min): 92.6%
- % of P + 1 (HIV-1 RT [1]; 50 μM substrate, 60 min): 94.6%
- % of P + 1 (HIV-1 RT [1]; 50 μM substrate, 120 min): 95.9%
- % of P + 1 (HIV-1 RT [1]; 100 μM substrate, 10 min): 94.8%
- % of P + 1 (HIV-1 RT [1]; 100 μM substrate, 20 min): 97.7%
- % of P + 1 (HIV-1 RT [1]; 100 μM substrate, 30 min): 97.6%
- % of P + 1 (HIV-1 RT [1]; 100 μM substrate, 60 min): 97.9%
- % of P + 1 (HIV-1 RT [1]; 100 μM substrate, 120 min): 97.5%
- % of P + 1 (HIV-1 RT [1]; 200 μM substrate, 10 min): 91.7%
- % of P + 2 (HIV-1 RT [1]; 200 μM substrate, 10 min): 3.0%
- % of P + 1 (HIV-1 RT [1]; 200 μM substrate, 20 min): 93.8%
- % of P + 2 (HIV-1 RT [1]; 200 μM substrate, 20 min): 3.4%
- % of P + 1 (HIV-1 RT [1]; 200 μM substrate, 30 min): 93.7%
- % of P + 2 (HIV-1 RT [1]; 200 μM substrate, 30 min): 3.6%
- % of P + 1 (HIV-1 RT [1]; 200 μM substrate, 60 min): 93.0%
- % of P + 2 (HIV-1 RT [1]; 200 μM substrate, 60 min): 4.3%
- % of P + 1 (HIV-1 RT [1]; 200 μM substrate, 120 min): 94.2%
- % of P + 2 (HIV-1 RT [1]; 200 μM substrate, 120 min): 3.6%
- % of P + 1 (HIV-1 RT [1]; 500 μM substrate, 10 min): 88.8%
- % of P + 2 (HIV-1 RT [1]; 500 μM substrate, 10 min): 7.5%
- % of P + 1 (HIV-1 RT [1]; 500 μM substrate, 20 min): 88.4%
- % of P + 2 (HIV-1 RT [1]; 500 μM substrate, 20 min): 9.6%
- % of P + 1 (HIV-1 RT [1]; 500 μM substrate, 30 min): 86.9%
- % of P + 2 (HIV-1 RT [1]; 500 μM substrate, 30 min): 11.1%
- % of P + 1 (HIV-1 RT [1]; 500 μM substrate, 60 min): 87.0%
- % of P + 2 (HIV-1 RT [1]; 500 μM substrate, 60 min): 11.2%
- % of P + 1 (HIV-1 RT [1]; 500 μM substrate, 120 min): 87.0%
- % of P + 2 (HIV-1 RT [1]; 500 μM substrate, 120 min): 11.5%
- % of P + 1 (HIV-1 RT [1]; 1 mM substrate, 10 min): 80.6%
- % of P + 2 (HIV-1 RT [1]; 1 mM substrate, 10 min): 16.7%
- % of P + 1 (HIV-1 RT [1]; 1 mM substrate, 20 min): 73.7%
- % of P + 2 (HIV-1 RT [1]; 1 mM substrate, 20 min): 23.7%
- % of P + 1 (HIV-1 RT [1]; 1 mM substrate, 30 min): 75.9%
- % of P + 2 (HIV-1 RT [1]; 1 mM substrate, 30 min): 22.1%
- % of P + 1 (HIV-1 RT [1]; 1 mM substrate, 60 min): 76.3%
- % of P + 2 (HIV-1 RT [1]; 1 mM substrate, 60 min): 21.9%
- % of P + 1 (HIV-1 RT [1]; 1 mM substrate, 120 min): 76.4%
- % of P + 2 (HIV-1 RT [1]; 1 mM substrate, 120 min): 21.7%
- fold more efficient incorporation compared with L-Cys-dAMP (2) (HIV-1 RT [1]; HIV-1 RT single nucleotide incorporation): 10.7 fold
- primer extension products (in words) (HIV-1 RT [2]; 50 μM and 100 μM substrate): only extended a primer with two and three adenine nucleobases
- P+7 product (HIV-1 RT [2]; 200 μM substrate): 7.1%
- P+7 product (HIV-1 RT [2]; 500 μM substrate): 15.9%
- P+7 product (HIV-1 RT [2]; 1 mM substrate): 23.8%
- incorporation activity relative to natural dATP (HIV-1 RT [2]): less active than the natural dATP
- misincorporation (P+8) (HIV-1 RT [2]): did not result in any misincorporation
- Km fold higher than the natural substrate dATP (HIV-1 RT [3]): 15 fold
- Vmax fold lower than dATP (HIV-1 RT [3]): 1.7 fold
- Km (HIV-1 RT [3]; [5]): 14.3 ± 3.78 µM
- Vmax (HIV-1 RT [3]; [5]): 19.21 ± 1.58 nM/min
- incorporation and primer extension by Taq DNA polymerase (in words) (Taq DNA polymerase): less active than HIV-1 RT
- Incorporation (conversion to a P+1 strand) (HIV-1 RT [4]; 10 μM substrate): 27.1%
- % of P + 1 (HIV-1 RT [4]; 50 μM substrate, 10 min, P1T1 125 nM): 84.5%
- substrate quality for HIV-1 RT (in words) (HIV-1 RT [4]; among phosphoramidate analogues 1-5): best incorporation efficiency
